Legend:
[1] = Kinematic viscosity of aqueous solutions of non-aqueous solvents (25° C.); format: physicochemical
Description: The “kinematic viscosity” herein is a value obtained by dividing viscosity of a liquid by its density and means a value measured using an Ubbelohde viscometer in accordance with Japanese Pharmacopoeia viscosity measuring method. In the invention, according to Japanese Pharmacopoeia, centistokes in CGS system is used as a unit.
These water-soluble acid amides may be used singly or as a mixture of two or more of them. Furthermore, within a range imparting no serious influence on viscosity, in addition to these, water-soluble non-aqueous solvents shown in JP-A-11-193233, for example, those described in the following Table 1 may be used as auxiliary solubilizing means.

[2] = as described in JP-B-63-65047; cited from earlier work

| Kinematic viscosity of aqueous solution ([1]; concentration 5% (W/V)) [Centistokes] | Kinematic viscosity of aqueous solution ([1]; concentration 10% (W/V)) [Centistokes] | Kinematic viscosity of aqueous solution ([1]; concentration 15% (W/V)) [Centistokes] | Kinematic viscosity of aqueous solution ([1]; concentration 20% (W/V)) [Centistokes] | Kinematic viscosity of aqueous solution ([1]; concentration 37% (W/V)) [Centistokes] | Compound | water-solubility [2] [w/v %] |
| --- | --- | --- | --- | --- | --- | --- |
| 1.082 | 1.300 | 1.577 | 1.857 | 2.479 | CCO [Ethanol] | – |
| – | – | – | – | – | NC(N)=Nc1nc(CSCCC(N)=NS(N)(=O)=O)cs1 [Famotidine] | ≤ 0.1 |
| 1.067 | 1.247 | 1.455 | 1.729 | 3.048 | CC(O)CO (centres unmarked) [Propylene glycol] | – |
